In patent publication US12257246B2, “Composition of 2,4,6-trifluoro-n-[6-(1-methyl-piperidin-4-carbonyl)-pyridin-2-yl[-benzamide” (CoLucid Pharmaceuticals, Inc., priority 2009, dated 2025):

Legend:
[1] = test system: migraine; conditions: in vivo; cited from earlier work
[2] = test system: rabbit saphenous vein; conditions: EC50 divided by %max KCl
[3] = test system: rabbit saphenous vein; assay: cells; conditions: Oryctolagus cuniculus, read-out: saphenous vein contraction EC50

| Compound | efficacy in acute treatment of migraine [1] | corrected vasoconstriction EC50 [2] | EC50 [3] |
| --- | --- | --- | --- |
| CN1CCC(c2c[nH]c3ccc(NC(=O)c4ccc(F)cc4)cc23)CC1 [LY334370] | proved effective | – | – |
| CNS(=O)(=O)Cc1ccc2[nH]cc(CCN(C)C)c2c1 [sumatriptan] | – | 10.3 nM | 660 nM |
